Reference: ChEMBL document CHEMBL1151297, “Studies of the Thymelaeaceae II. Antineoplastic principles of Gnidia kraussiana” (1984)
Converted amounts (≈) assume the structure as drawn.

Test system: P388
Test: Cytotoxicity against mouse P388 cells
Type: functional
Details: read-out: ED50 (the source's name)

| Structure (SMILES) | EC50 |
| --- | --- |
| C=C(C)[C@]12C[C@@H](C)[C@@]34O[C@@]5(CCCCCCC[C@H](C)[C@H]6[C@H](C)[C@H](OC(=O)c7ccccc7)[C@@](O)([C@H](O)[C@@]7(CO)O[C@H]7[C@@H]3[C@H]1O5)[C@@H]64)O2 | 2.3 ng/mL (≈ 3.6 nM) |
| C=C(C)[C@@]12O[C@@]3(/C=C/C=C/CCCCC)O[C@@H]1[C@@H]1[C@@H]4O[C@]4(CO)[C@@H](O)[C@]4(O)C(=O)C(C)=C[C@H]4[C@@]1(O3)[C@H](C)[C@H]2OC(=O)c1ccccc1 [GNIDILATIDIN] | < 1 ng/mL |
| C=C(C)[C@]12C[C@@H](C)[C@@]34O[C@](/C=C/C=C/CCCCC)(O[C@@H]1[C@@H]3[C@@H]1O[C@]1(CO)[C@@H](O)[C@]1(O)C(=O)C(C)=C[C@H]14)O2 [EXCOECARIA TOXIN] | 0.24 ng/mL (≈ 0.454 nM) |
| C=C(C)[C@@]12C[C@@H](C)[C@@]34OC5(O[C@@H]1[C@@H]3[C@@H]1O[C@]1(CO)[C@@H](O)[C@@]1(O)[C@H]4[C@H]([C@H](C)[C@@H]1OC(=O)c1ccccc1)[C@H](C)CCCCCC[C@H]5O)O2 [KRAUSSIANIN] | 0.78 ng/mL (≈ 1.19 nM) |
| C=C(C)[C@@]12O[C@@]3(CCCCCCCCC)O[C@@H]1[C@@H]1[C@@H]4O[C@]4(CO)[C@@H](O)[C@]4(O)C(=O)C(C)=C[C@H]4[C@@]1(O3)[C@H](C)[C@H]2OC(=O)c1ccccc1 [GNIDILATIN] | < 1 ng/mL |

Test system: P388
Test: In vivo antitumor activity against mouse P388 cells at 30 ug/kg
Type: functional
Details: not given

| Structure (SMILES) | T/C |
| --- | --- |
| C=C(C)[C@@]12C[C@@H](C)[C@@]34OC5(O[C@@H]1[C@@H]3[C@@H]1O[C@]1(CO)[C@@H](O)[C@@]1(O)[C@H]4[C@H]([C@H](C)[C@@H]1OC(=O)c1ccccc1)[C@H](C)CCCCCC[C@H]5O)O2 [KRAUSSIANIN] | 152% |
